Data taken from ChEMBL document CHEMBL1146367, “Substituted thiophene-anthranilamides as potent inhibitors of human factor Xa” (Bioorg Med Chem, 2007).

Experiments:
Plasma = experiment: Anticoagulant activity in human plasma assessed as concentration required to double prothrombin time; assay type: functional, cell-free
Coagulation factor X = Coagulation factor X (Homo sapiens, UniProt P00742); experiment: Binding affinity to human factor 10a after 10 mins; conditions: read-out: Ki app
[1] = Binding affinity to bovine trypsin after 10 mins; parameters: species or system Bos taurus; conditions: read-out: Ki app
Prothrombin = Prothrombin (Homo sapiens, UniProt P00734); experiment: Binding affinity to human thrombin after 10 mins; conditions: read-out: Ki app
[2] = Plasma concentration in Beagle dog at 10 mg/kg, po; assay type: ADME, organism-based, Canis lupus familiaris; parameters: dose 10 mg/kg, route oral
[3] = Volume of distribution at steady state in Beagle dog at 1 mg/kg, iv; assay type: ADME, organism-based, Canis lupus familiaris; parameters: dose 1 mg/kg, route intravenous; conditions: in vivo, read-out: Vdss
[4] = Half life in Beagle dog at 1 mg/kg, iv; assay type: ADME, organism-based, Canis lupus familiaris; parameters: dose 1 mg/kg, route intravenous; conditions: in vivo
[5] = Bioavailability in Beagle dog at 10 mg/kg, po; assay type: ADME, organism-based, Canis lupus familiaris; conditions: in vivo
[6] = Clearance in Beagle dog at 1 mg/kg, iv; assay type: ADME, organism-based, Canis lupus familiaris; parameters: dose 1 mg/kg, route intravenous; conditions: in vivo
[7] = Dissociation constant, pKa of the compound; assay type: physicochemical

Sequence of Coagulation factor X (P00742 41-179 limits assumed): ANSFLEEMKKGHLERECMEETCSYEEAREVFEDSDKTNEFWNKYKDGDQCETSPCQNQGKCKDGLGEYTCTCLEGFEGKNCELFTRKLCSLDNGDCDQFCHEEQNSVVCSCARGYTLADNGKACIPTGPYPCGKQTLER
Sequence of Coagulation factor X (P00742 235-488 limits assumed): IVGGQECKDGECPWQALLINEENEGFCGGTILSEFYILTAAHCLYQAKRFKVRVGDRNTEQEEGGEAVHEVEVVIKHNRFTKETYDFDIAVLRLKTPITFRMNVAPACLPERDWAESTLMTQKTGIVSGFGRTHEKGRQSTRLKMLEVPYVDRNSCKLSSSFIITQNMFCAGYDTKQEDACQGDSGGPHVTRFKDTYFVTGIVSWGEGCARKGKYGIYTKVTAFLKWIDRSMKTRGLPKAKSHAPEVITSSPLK

| Compound | Cp (Plasma) | Ki (Coagulation factor X) | Ki [1] | Ki (Prothrombin) | Cmax [2] | Vd [3] | half-life [4] | bioavailability [5] | clearance [6] | pKa [7] |
| --- | --- | --- | --- | --- | --- | --- | --- | --- | --- | --- |
| CN(C)CCN(C)Cc1csc(C(=O)Nc2ccc(Cl)cc2C(=O)Nc2ccc(Cl)cc2)c1Cl | 4.6 µM | 0.00045 µM | > 5 µM | 0.16 µM | – | – | – | – | – | – |
| Cc1ccc2c(Cl)c(C(=O)Nc3ccc(Cl)cc3C(=O)Nc3ccc(Cl)cc3)sc2c1 | – | 0.00095 µM | > 5 µM | > 5 µM | – | – | – | – | – | – |
| CN(CCO)Cc1csc(C(=O)Nc2ccc(Cl)cc2C(=O)Nc2ccc(Cl)cc2)c1Cl | 7 µM | 0.0008 µM | > 5 µM | 0.83 µM | – | – | – | – | – | – |
| O=C(Nc1ccc(Cl)cc1)c1cc(Cl)ccc1NC(=O)c1scc(COCC(O)CO)c1Cl (centres undefined) | 30 µM | 0.0057 µM | > 5 µM | 2.4 µM | – | – | – | – | – | – |
| CN(C)Cc1c(C(=O)Nc2ccc(Cl)cc2C(=O)Nc2ccc(Cl)cc2)sc2ccccc12 | – | 0.009 µM | > 5 µM | 1.2 µM | – | – | – | – | – | – |
| Cc1cc(Cl)c(C(=O)Nc2ccc(Cl)cc2C(=O)Nc2ccc(Cl)cc2)s1 | – | 0.024 µM | > 5 µM | > 5 µM | – | – | – | – | – | – |
| O=C(Nc1ccc(Cl)cc1)c1cc(Cl)ccc1NC(=O)c1scc(Cn2ccnn2)c1Cl | 15 µM | 0.0014 µM | > 5 µM | 2.7 µM | – | – | – | – | – | – |
| O=C(Nc1ccc(Cl)cc1)c1cc(Cl)ccc1NC(=O)c1scc(Cn2ncnn2)c1Cl | 63 µM | 0.002 µM | > 5 µM | > 5 µM | – | – | – | – | – | – |
| O=C(Nc1ccc(Cl)cc1)c1cc(Cl)ccc1NC(=O)c1sc2ccccc2c1Cl | – | – | > 5 µM | > 5 µM | – | – | – | – | – | – |
| CS(=O)(=O)Cc1csc(C(=O)Nc2ccc(Cl)cc2C(=O)Nc2ccc(Cl)cc2)c1Cl | 14 µM | 0.0021 µM | > 5 µM | > 5 µM | – | – | – | – | – | – |
| O=C(Nc1ccc(Cl)cc1)c1cc(Cl)ccc1NC(=O)c1scc(Cn2cncn2)c1Cl | 18 µM | 0.0016 µM | > 5 µM | 2.4 µM | – | – | – | – | – | – |
| O=C(Nc1ccc(Cl)cc1)c1cc(Cl)ccc1NC(=O)c1scc(CNCCOCCO)c1Cl | 20 µM | 0.0034 µM | > 5 µM | 3.2 µM | – | – | – | – | – | – |
| CN(C)Cc1ccc2c(Cl)c(C(=O)Nc3ccc(Cl)cc3C(=O)Nc3ccc(Cl)cc3)sc2c1 | – | 0.014 µM | > 5 µM | > 5 µM | – | – | – | – | – | – |
| Cc1csc(C(=O)Nc2ccc(Cl)cc2C(=O)Nc2ccc(Cl)cc2)c1Cl | – | 0.018 µM | > 5 µM | > 5 µM | – | – | – | – | – | – |
| CN(CCN1CCCC1)Cc1csc(C(=O)Nc2ccc(Cl)cc2C(=O)Nc2ccc(Cl)cc2)c1Cl | 5 µM | 0.0003 µM | > 5 µM | 0.16 µM | – | – | – | – | – | – |
| Cc1c(CN2CCN(C)CC2)sc(C(=O)Nc2ccc(Cl)cc2C(=O)Nc2ccc(Cl)cc2)c1Cl | 58 µM | 0.01 µM | > 5 µM | 1.5 µM | – | – | – | – | – | – |
| O=C(Nc1ccc(Cl)cc1)c1cc(Cl)ccc1NC(=O)c1scc(Cn2cnnn2)c1Cl | 29 µM | 0.0017 µM | > 5 µM | > 5 µM | – | – | – | – | – | – |
| CN1CCN(Cc2cc(Cl)c(C(=O)Nc3ccc(Cl)cc3C(=O)Nc3ccc(Cl)cc3)s2)CC1 | 13 µM | 0.0056 µM | > 5 µM | 1 µM | – | – | – | – | – | – |
| CCOC(=O)CN(C)Cc1csc(C(=O)Nc2ccc(Cl)cc2C(=O)Nc2ccc(Cl)cc2)c1Cl | 160 µM | 0.0052 µM | > 5 µM | 2.3 µM | – | – | – | – | – | – |
| CCN(CC)CCN(C)Cc1csc(C(=O)Nc2ccc(Cl)cc2C(=O)Nc2ccc(Cl)cc2)c1Cl | 3.9 µM | 0.00052 µM | > 5 µM | 0.12 µM | – | – | – | – | – | – |
| O=C(Nc1ccc(Cl)cc1)c1cc(Cl)ccc1NC(=O)c1scc(CNCCCn2ccnc2)c1Cl | 24 µM | 0.0046 µM | > 5 µM | 1.8 µM | – | – | – | – | – | – |
| CC1(C)OCC(COCc2csc(C(=O)Nc3ccc(Cl)cc3C(=O)Nc3ccc(Cl)cc3)c2Cl)O1 (centres undefined) | – | 0.02 µM | > 5 µM | > 5 µM | – | – | – | – | – | – |
| COCCOCCOCc1csc(C(=O)Nc2ccc(Cl)cc2C(=O)Nc2ccc(Cl)cc2)c1Cl | 95 µM | 0.01 µM | > 5 µM | 3.6 µM | – | – | – | – | – | – |
| CCN1CCN(Cc2csc(C(=O)Nc3ccc(Cl)cc3C(=O)Nc3ccc(Cl)cc3)c2Cl)CC1 | 12 µM | 0.0016 µM | > 5 µM | > 5 µM | – | – | – | – | – | – |

| Compound | Cp (Plasma) | Ki (Coagulation factor X) | Ki [1] | Ki (Prothrombin) | Cmax [2] | Vd [3] | half-life [4] | bioavailability [5] | clearance [6] | pKa [7] |
| --- | --- | --- | --- | --- | --- | --- | --- | --- | --- | --- |
| Cc1cccc2sc(C(=O)Nc3ccc(Cl)cc3C(=O)Nc3ccc(Cl)cc3)c(Cl)c12 | – | > 5 µM | > 5 µM | > 5 µM | – | – | – | – | – | – |
| CN1CCN(Cc2c(C(=O)Nc3ccc(Cl)cc3C(=O)Nc3ccc(Cl)cc3)sc3ccccc23)CC1 | – | 0.02 µM | > 5 µM | 1 µM | – | – | – | – | – | – |
| CSCc1csc(C(=O)Nc2ccc(Cl)cc2C(=O)Nc2ccc(Cl)cc2)c1Cl | > 200 µM | 0.0008 µM | > 5 µM | > 5 µM | – | – | – | – | – | – |
| Cc1sc(C(=O)Nc2ccc(Cl)cc2C(=O)Nc2ccc(Cl)cc2)c(Cl)c1CN1CCN(C)CC1 | 25 µM | 0.012 µM | > 5 µM | 4.4 µM | – | – | – | – | – | – |
| Cc1c(C(=O)Nc2ccc(Cl)cc2C(=O)Nc2ccc(Cl)cc2)sc2ccccc12 | – | 0.00082 µM | > 5 µM | > 5 µM | – | – | – | – | – | – |
| CN(CCOCCO)Cc1csc(C(=O)Nc2ccc(Cl)cc2C(=O)Nc2ccc(Cl)cc2)c1Cl | 8.8 µM | 0.0015 µM | > 5 µM | 1.1 µM | – | – | – | – | – | – |
| O=C(Nc1ccc(Cl)cc1)c1cc(Cl)ccc1NC(=O)c1scc(CN2CCOCC2)c1Cl | 59 µM | 0.0062 µM | > 5 µM | 2.3 µM | – | – | – | – | – | – |
| O=C(Nc1ccc(Cl)cc1)c1cc(Cl)ccc1NC(=O)c1scc(CN2CCSCC2)c1Cl | 400 µM | 0.0048 µM | > 5 µM | > 5 µM | – | – | – | – | – | – |
| CN1CCN(Cc2csc(C(=O)Nc3ccc(Cl)cc3C(=O)Nc3ccc(Cl)cc3)c2Cl)CC1 | 12 µM | 0.001 µM | > 5 µM | 0.91 µM | 6.3 µM | 0.7 L/kg | 2 h | 41% | 5 mL/min/kg | – |
| O=C(O)CN1CCN(Cc2ccc3c(Cl)c(C(=O)Nc4ccc(Cl)cc4C(=O)Nc4ccc(Cl)cc4)sc3c2)CC1 | – | 0.0095 µM | > 5 µM | > 5 µM | – | – | – | – | – | – |
| CN(C)CCCN(C)Cc1csc(C(=O)Nc2ccc(Cl)cc2C(=O)Nc2ccc(Cl)cc2)c1Cl | 2.9 µM | 0.0006 µM | > 5 µM | 0.19 µM | – | – | – | – | – | – |
| O=C(Nc1ccc(Cl)cc1)c1cc(Cl)ccc1NC(=O)c1scc(Cn2nccn2)c1Cl | 83 µM | 0.0035 µM | > 5 µM | 3.3 µM | – | – | – | – | – | – |
| O=C(Nc1ccc(Cl)cc1)c1cc(Cl)ccc1NC(=O)c1scc(Cn2cccn2)c1Cl | 49 µM | 0.0021 µM | > 5 µM | 0.55 µM | – | – | – | – | – | – |
| CN1CCC(N(C)Cc2csc(C(=O)Nc3ccc(Cl)cc3C(=O)Nc3ccc(Cl)cc3)c2Cl)CC1 | 3.2 µM | 0.00038 µM | > 5 µM | 0.31 µM | – | – | – | – | – | – |
| O=C(Nc1ccc(Cl)cc1)c1cc(Cl)ccc1NC(=O)c1sc(Cn2ccnc2)cc1Cl | 24 µM | 0.0072 µM | > 5 µM | 0.51 µM | – | – | – | – | – | – |
| O=C(Nc1ccc(Cl)cc1)c1cc(Cl)ccc1NC(=O)c1sc(CN2CCOCC2)cc1Cl | > 500 µM | 0.034 µM | > 5 µM | > 5 µM | – | – | – | – | – | – |
| CN1CCN(Cc2ccc3c(Cl)c(C(=O)Nc4ccc(Cl)cc4C(=O)Nc4ccc(Cl)cc4)sc3c2)CC1 | – | 0.021 µM | > 5 µM | > 5 µM | – | – | – | – | – | – |
| COCCOCc1csc(C(=O)Nc2ccc(Cl)cc2C(=O)Nc2ccc(Cl)cc2)c1Cl | 110 µM | 0.012 µM | > 5 µM | > 5 µM | – | – | – | – | – | – |
| CN(C)CCSCc1csc(C(=O)Nc2ccc(Cl)cc2C(=O)Nc2ccc(Cl)cc2)c1Cl | 19 µM | 0.0027 µM | > 5 µM | 0.56 µM | – | – | – | – | – | 8.9 |
| CN(Cc1csc(C(=O)Nc2ccc(Cl)cc2C(=O)Nc2ccc(Cl)cc2)c1Cl)CC(O)CO (centres undefined) | 11 µM | 0.0014 µM | > 5 µM | 0.99 µM | – | – | – | – | – | – |
| O=C(Nc1ccc(Cl)cc1)c1cc(Cl)ccc1NC(=O)c1scc(Cn2ccnc2)c1Cl | 18 µM | 0.0019 µM | > 5 µM | 1 µM | – | – | – | – | – | – |
| CC(=O)N1CCN(Cc2csc(C(=O)Nc3ccc(Cl)cc3C(=O)Nc3ccc(Cl)cc3)c2Cl)CC1 | – | 0.006 µM | > 5 µM | 4.4 µM | – | – | – | – | – | – |
| CCCNCc1sc(C(=O)Nc2ccc(Cl)cc2C(=O)Nc2ccc(Cl)cc2)c(Cl)c1CNCCC | 19 µM | 0.0075 µM | > 5 µM | 1.5 µM | – | – | – | – | – | – |
| C[S+]([O-])Cc1csc(C(=O)Nc2ccc(Cl)cc2C(=O)Nc2ccc(Cl)cc2)c1Cl (centres undefined) | 5.6 µM | 0.0004 µM | > 5 µM | 0.97 µM | – | – | – | – | – | – |
